Assay results from patent US12129490B2, “Methods for generating hepatocytes and cholangiocytes from pluripotent stem cells” (UNIVERSITY HEALTH NETWORK, priority 2018, dated 2024).
One block for each molecule: values may come before it.

Assays:
CFTR = target: T1, CFTR (Homo sapiens, UniProt P13569); test: Forskolin-induced swelling assay on hPSC-derived cystic structures; type: cell-based; details: hPSC-derived cysts
T1 construct: hPSC-derived cyst structures generated in 3D gels contain functional CFTR protein; endogenous in cells; host or cells: cysts from H9 hESC- and Y2-1 iPSC-derived cholangiocytes
T1 sequence (P13569 whole entry): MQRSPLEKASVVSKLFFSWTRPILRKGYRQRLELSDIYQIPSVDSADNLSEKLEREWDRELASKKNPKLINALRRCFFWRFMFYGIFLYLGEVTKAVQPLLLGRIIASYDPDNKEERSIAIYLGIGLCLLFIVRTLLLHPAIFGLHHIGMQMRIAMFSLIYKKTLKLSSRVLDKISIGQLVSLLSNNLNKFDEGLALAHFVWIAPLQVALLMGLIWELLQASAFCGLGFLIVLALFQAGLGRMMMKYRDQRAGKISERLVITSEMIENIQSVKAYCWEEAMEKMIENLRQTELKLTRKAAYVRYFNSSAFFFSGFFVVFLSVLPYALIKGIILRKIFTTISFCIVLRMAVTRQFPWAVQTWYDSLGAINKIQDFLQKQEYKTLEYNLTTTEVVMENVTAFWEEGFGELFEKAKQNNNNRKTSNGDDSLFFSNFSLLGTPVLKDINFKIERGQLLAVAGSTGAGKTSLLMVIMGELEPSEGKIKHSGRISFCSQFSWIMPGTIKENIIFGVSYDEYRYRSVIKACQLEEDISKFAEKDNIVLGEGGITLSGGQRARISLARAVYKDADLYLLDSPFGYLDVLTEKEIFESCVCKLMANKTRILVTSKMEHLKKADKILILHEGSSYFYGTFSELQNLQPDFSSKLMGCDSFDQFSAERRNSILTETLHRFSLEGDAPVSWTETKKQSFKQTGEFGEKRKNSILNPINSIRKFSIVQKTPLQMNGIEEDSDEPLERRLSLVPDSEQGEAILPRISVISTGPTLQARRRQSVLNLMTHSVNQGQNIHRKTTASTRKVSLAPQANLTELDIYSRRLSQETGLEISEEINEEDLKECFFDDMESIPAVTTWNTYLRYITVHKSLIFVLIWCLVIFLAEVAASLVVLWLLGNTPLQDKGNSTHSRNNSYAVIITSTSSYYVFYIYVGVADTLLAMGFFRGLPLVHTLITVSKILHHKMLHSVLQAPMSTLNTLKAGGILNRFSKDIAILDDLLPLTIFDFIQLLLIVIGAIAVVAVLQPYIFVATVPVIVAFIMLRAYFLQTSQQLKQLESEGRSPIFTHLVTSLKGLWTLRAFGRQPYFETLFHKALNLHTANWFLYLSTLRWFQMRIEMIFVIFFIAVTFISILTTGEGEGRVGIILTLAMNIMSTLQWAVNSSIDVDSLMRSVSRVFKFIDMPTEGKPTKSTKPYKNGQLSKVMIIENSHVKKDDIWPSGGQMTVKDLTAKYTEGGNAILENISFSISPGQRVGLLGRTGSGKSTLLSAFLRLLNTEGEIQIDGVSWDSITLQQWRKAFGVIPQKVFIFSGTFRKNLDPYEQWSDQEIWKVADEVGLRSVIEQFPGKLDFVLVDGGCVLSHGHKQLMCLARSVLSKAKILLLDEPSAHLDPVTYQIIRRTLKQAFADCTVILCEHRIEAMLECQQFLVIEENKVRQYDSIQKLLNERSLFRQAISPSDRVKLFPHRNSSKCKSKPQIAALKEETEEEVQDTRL
Source text: F/I stimulated cyst swelling was quantified using velocity imaging software. The total size of the cysts is normalized to that prior to F/I stimulation. Values are from three individual experiments.
With this assay, activation of the cAMP pathway by the addition of Forskolin/IBMX increases CFTR function resulting in fluid transport and swelling of the cyst. Swelling can be visualized following staining with calcein green, a cell-permeable fluorescent dye (FIG. 18a).

[1] = system: iPSC-derived cholangiocytes; test: Cyst formation in 3D gel culture of iPSC-derived cholangiocytes; type: cell-based, human; details: normal iPSC-derived cholangiocytes
Source text: After embedding in collagen/Matrigel culture, cyst formation was induced from the aggregates by the addition of forskolin for the first week of the two-week culture period (left). Without forskolin stimulation, the CF-iPSCs derived cholangiocytes formed branched ductal structure rather than hollow cysts (right).
CF-iPSCs derived cholangiocytes were maintained in the 3D gel conditions in the presence or absence of forskolin for the first week of the two weeks culture period (left graph). Normal iPS cells-derived cholangiocytes were maintained in the presence or absence of CFTR inhibitor for the first week of the two-week culture periods (right graph). […] Addition of the CFTR inhibitor to normal iPSC-derived cholangiocytes delayed cyst formation (right graph).
Both hiPSC lines generated hepatoblast populations with kinetics similar to those observed for wild type hPSCs (FIG. 24a, b). […] However, many of the cysts that developed from the patient iPSC we not completely hollow, but rather contained branched ductal structures (FIG. 19c).

hPSCs = test: Definitive endoderm induction with CHIR99021 replacing Wnt3a, flow cytometry; type: cell-based, human; details: in combination with activin
Description: CHIR99021 is a selective inhibitor of GSK3 that has been reported to mimic the canonical Wnt signal pathway. CHIR99021 was tested as a replacement of wnt3a (e.g. added in combination with activin) in inducing Embryoid bodies and monolayer induction for definitive endoderm cells from hPSCs. […] At day 0, the cells were cultured in a RPMI based medium supplemented with glutamine (2 mM), MTG (4.5×10^−4 M: Sigma), activin A (100 ng/ml), CHIR99021 (0.3 μM) or Wnt3a (25 ng/ml). […] The media was changed every the other day. At day 7, the definitive endoderm was specified to a hepatic fate by treatment with FGF and BMP pathway agonists, as described above.

other kinases = details: in vitro kinase assays; cited from earlier work
[2] = system: hESC-derived embryoid bodies; test: Endoderm induction in hESC-derived embryoid bodies, flow cytometry; type: cell-based, human; details: day six EBs
Description: Similar to protocols using monolayer cultures^16, it involves specific steps that recapitulate the critical stages of liver development in the early embryo. EBs are formed from small aggregates by culture for 24 hours in low levels of BMP4, as previously described^18. The EBs are subsequently exposed to high concentrations of activin A (hereafter referred to as activin) for five days to induce definitive endoderm, a population defined by expression of the surface markers CXCR4, CKIT and EPCAM and the transcription factors SOX17 and FOXA2.
Addition of Wnt3A to the activin-induced EB cultures led to reproducible increases in the proportion of CXCR4^+, SOX17^+ and FOXA2^+ cells within the EBs (FIG. 1c). With the increase in CXCR4 expression, the proportion of CKIT^+CXCR4^+ and CXCR4^+EPCAM^+ cells increased to greater than 95% of the population. […] Endoderm induction in the EBs was influenced by the base culture media used. StemPro34 supported more efficient endoderm induction than neural basal media that we used previously (FIG. 1f). The induction of highly enriched endoderm is an important first step in the efficient and reproducible generation of hepatocyte-like cells from hPSCs.
(§1) Media was changed every 3 days.
Flow cytometric analyses were performed as described previously^45. […] Stained cells were analyzed using an LSRII flow cytometer (BD).

[3] = system: H9 hESCs, H1 hESCs and 38-2 iPSCs; test: Hepatic specification from other hPSC lines, flow cytometry; type: cell-based, human
Source text: To determine whether the approach detailed above is broadly applicable to different human pluripotent stem cell lines the protocol was used to differentiate the hESC lines H9 and H1 as well as an induced pluripotent cell (iPSC) line 38-2 to a hepatic fate. Day six EBs from all three lines contained high proportions of CKIT^+CXCR4^+ and CKIT^EPCAM* cells following the Wnt3a/activin induction step (FIG. 7a). Although the proportion of EPCAIVT cells was high in all EBs, the H9-derived cells expressed substantially higher levels of EPCAM than cells generated from the other lines. The levels of EPCAM expression correlated with the degree of endoderm induction, as greater than 95% of the H9-derived population expressed SOX17^+ and FOXA2^+ whereas only 65-70% of the iPSC-derived cells expressed these transcription factors (FIG. 7a). These findings indicate that surface marker analysis alone is not sufficient to monitor endoderm development and that quantitative analyses of SOX17 and FOXA2 expression is required to measure induction of this germ layer. As observed with the HES2 cells, extended activin/nodal signaling improved hepatic development of the CKIT^+CXCR4^+ population from each line (FIG. 7b). However, the duration of activin treatment necessary to generate significant levels of ALB expression varied between cell lines. Whereas higher levels of ALB expression were achieved following two days of activin treatment with H9-derived cells, both H1 and 38-2 cells required four days of additional activin signaling. With this treatment, it was possible to generate cultures consisting of 90%, 85% and 70% ALB^+ cells from the H9, H1 and 38-2 cell lines, respectively (FIG. 7c).
as §1
Flow cytometric analyses were performed as described previously^45. For cell surface markers, staining was carried out in PBS with 10% FCS. For intracellular proteins, staining was performed on cells fixed with 4% paraformaldehyde (Electron Microscopy Science, Hatfield, PA, USA) in PBS. […] Stained cells were analyzed using an LSRII flow cytometer (BD).

[4] = system: day six EB-derived monolayer cells; test: Extended activin treatment of EB-derived monolayer cells, flow cytometry; type: cell-based, human
Description: FIG. 3A is an intracellular flow cytometric analysis showing the proportion of SOX17^+ and FOXA2^+ cells in day six activin/Wnt3A-induced EBs as well as in monolayer populations derived from them. The monolayer populations were cultured either directly in the specification media (−activin) or for two days in activin (50 ng/ml) and then in the specification media (+activin). Populations were analyzed following two or four days culture in the specification media (total days eight and 10 for the −activin group and days 10 and 12 for the +activin group). Bars represent standard deviation (SD) of the mean of three independent experiments.
FIG. 3E is a flow cytometric analysis showing the proportion of CD31^+ CD90^+ and EPCAM^+ cells in monolayer populations derived from activin treated (day 26) and non-treated (day 24) endoderm. […] In contrast, a higher portion of EPCAM^+ cells was detected in the population derived from the activin-treated endoderm compared to the population generated from the non-treated cells (EPCAM: 90.7+/−2.7% vs 56.8+/−7.3%; P<0.01, n=3).
It was not known if prolonged signaling would be useful with human PSC. The effect of increasing the duration of this signaling pathway was extended in the human system by culturing the monolayer cells for two days in activin prior to the FGF/BMP4 specification step. […] Without being bound by theory, since the total cell number was lower in the treated population (FIG. 3b) it is possible that activin signaling at this stage preferentially supports the survival of endodermal cells.
as §1
Flow cytometric analyses were performed as described previously^45. For cell surface markers, staining was carried out in PBS with 10% FCS. For intracellular proteins, staining was performed on cells fixed with 4% paraformaldehyde (Electron Microscopy Science, Hatfield, PA, USA) in PBS. Cells were permeabilized with 90% ice-cold methanol for 20 minutes for Sox17 and FoxA2 staining as previously described^45. Albumin and alpha-fetoprotein staining was performed in PBS with 10% FCS and 0.5% saponin (Sigma). Stained cells were analyzed using an LSRII flow cytometer (BD).

[5] = day 10/12, two days activin 50 ng/ml before specification media
[6] = monolayer from activin treated endoderm, day 26

effect on Forskolin/IBMX induced swelling (CFTR): blocked
Molecule: O=C(O)c1ccc(/C=C2\SC(=S)N(c3cccc(C(F)(F)F)c3)C2=O)cc1 [CFTRinh-172]
cyst formation [1]: delayed

Molecule: Cc1c[nH]c(-c2cnc(NCCNc3ccc(C#N)cn3)nc2-c2ccc(Cl)cc2Cl)n1 [CHIR 99021]
proportion of CKIT+CXCR4+ and CXCR4+EPCAM+ cells (hPSCs): greater than 95%
effect on other kinases (other kinases): little effect

Molecule: activin: Activin A, nodal agonist
proportion co-expressing CXCR4 and CKIT or CXCR4 and EPCAM [2]: greater than 90%
ALB+ cells ([3]; 38-2, four days additional activin): 70%
ALB+ cells ([3]; H1, four days additional activin): 85%
ALB+ cells ([3]; H9, two days additional activin): 90%
proportion of FOXA2+ cells [4, 5]: 92.7+/−2.5%
proportion of SOX17+ cells [4, 5]: 73.3+/−7.5%
proportion of FOXA2+ cells ([4]; days 8/10, two days activin 50 ng/ml before specification media): 96.1+/−0.9%
proportion of CD31+ cells [4, 6]: 0.49+/−0.11%
proportion of CD90+ cells [4, 6]: 8.5+/−1.19%
proportion of EPCAM+ cells [4, 6]: 90.7+/−2.7%
